Patent EP4635500A1, “THERAPEUTIC AGENT FOR BACTERIAL INFECTION” (Sumitomo Pharma Co., Ltd., priority 2022, dated 2024)
Converted amounts (≈) assume the structure as drawn. Like-named read-outs stand apart in the source and are kept apart here.

What was measured:
P. aeruginosa = assay: Systemic infection lethal mouse model, ED50 (Example 15, Table 33); settings: Pseudomonas aeruginosa, in Mus musculus, sc, single s.c. dose, with cilastatin 100 mg/kg
Description: The test strains on the agar medium were suspended in saline and adjusted to a Klett unit of about 200 using a Klett Photoelectric Colorimeter. […] Male ICR mice were inoculated intraperitoneally with 0.2 mL of the bacterial suspension. Two hours after the inoculation, saline or a solution for administering the agent of each concentration was administered subcutaneously to the mice in a single dose. The number of mice that survived from Day 1 to Day 7 after infection was recorded.

[1] = test system: carbapenemase-producing Enterobacteriaceae (CPE); assay: MIC in human urine and CAMHB at pH 5.0 to 8.0 (Example 13, Tables 29, 30)

Structure (SMILES): C[C@@H](O)[C@H]1C(=O)N2C(C(=O)O)=C(S[C@@H]3CN[C@H](C(=O)N(C)C)C3)[C@H](C)[C@H]12 [MEPM, meropenem]
- ED50 (P. aeruginosa; read-out: ED50 of MEPM, P. aeruginosa CDC-90 (KPC-5)): 54.8 mg/kg
- ED50 (P. aeruginosa; read-out: ED50 of MEPM, P. aeruginosa CDC-110 (VIM-2)): 218 mg/kg
- MIC ([1]; Escherichia coli, ATCC25922, pH 5, read-out: MICs of MEPM, E. coli ATCC 25922 (QC strain), CAMHB pH5.0): 0.12 µg/mL (≈ 0.313 µM)
- MIC ([1]; Escherichia coli, ATCC25922, pH 5, read-out: MICs of MEPM, E. coli ATCC 25922 (QC strain), Human urine pH5.0): 0.12 µg/mL (≈ 0.313 µM)
- MIC ([1]; Escherichia coli, ATCC25922, pH 6, read-out: MICs of MEPM, E. coli ATCC 25922 (QC strain), CAMHB pH6.0): 0.06 µg/mL (≈ 0.156 µM)
- MIC ([1]; Escherichia coli, ATCC25922, pH 6, read-out: MICs of MEPM, E. coli ATCC 25922 (QC strain), Human urine pH6.0): 0.03 µg/mL (≈ 0.0782 µM)
- MIC ([1]; Escherichia coli, ATCC25922, pH 7, read-out: MICs of MEPM, E. coli ATCC 25922 (QC strain), Human urine pH7.0): 0.015 µg/mL (≈ 0.0391 µM)
- MIC ([1]; Escherichia coli, ATCC25922, pH 7.2, read-out: MICs of MEPM, E. coli ATCC 25922 (QC strain), Standard condition (CAMHB pH7.2)): 0.03 µg/mL (≈ 0.0782 µM)
- MIC ([1]; Escherichia coli, ATCC25922, pH 8, read-out: MICs of MEPM, E. coli ATCC 25922 (QC strain), CAMHB pH8.0): 0.015 µg/mL (≈ 0.0391 µM)
- MIC ([1]; Escherichia coli, ATCC25922, pH 8, read-out: MICs of MEPM, E. coli ATCC 25922 (QC strain), Human urine pH8.0): 0.015 µg/mL (≈ 0.0391 µM)
- MIC ([1]; Escherichia coli, ATCCBAA2340, pH 5, read-out: MICs of MEPM, E. coli ATCC BAA-2340 (KPC-3), CAMHB pH5.0): 2 µg/mL (≈ 5.22 µM)
- MIC ([1]; Escherichia coli, ATCCBAA2340, pH 5, read-out: MICs of MEPM, E. coli ATCC BAA-2340 (KPC-3), Human urine pH5.0): 1 µg/mL (≈ 2.61 µM)
- MIC ([1]; Escherichia coli, ATCCBAA2340, pH 6, read-out: MICs of MEPM, E. coli ATCC BAA-2340 (KPC-3), CAMHB pH6.0): 8 µg/mL (≈ 20.9 µM)
- MIC ([1]; Escherichia coli, ATCCBAA2340, pH 6, read-out: MICs of MEPM, E. coli ATCC BAA-2340 (KPC-3), Human urine pH6.0): 1 µg/mL (≈ 2.61 µM)
- MIC ([1]; Escherichia coli, ATCCBAA2340, pH 7, read-out: MICs of MEPM, E. coli ATCC BAA-2340 (KPC-3), Human urine pH7.0): 2 µg/mL (≈ 5.22 µM)
- MIC ([1]; Escherichia coli, ATCCBAA2340, pH 7.2, read-out: MICs of MEPM, E. coli ATCC BAA-2340 (KPC-3), Standard condition (CAMHB pH7.2)): 8 µg/mL (≈ 20.9 µM)
- MIC ([1]; Escherichia coli, ATCCBAA2340, pH 8, read-out: MICs of MEPM, E. coli ATCC BAA-2340 (KPC-3), CAMHB pH8.0): 4 µg/mL (≈ 10.4 µM)
- MIC ([1]; Escherichia coli, ATCCBAA2340, pH 8, read-out: MICs of MEPM, E. coli ATCC BAA-2340 (KPC-3), Human urine pH8.0): 8 µg/mL (≈ 20.9 µM)
- MIC ([1]; Escherichia coli, ATCCBAA2469, pH 5, read-out: MICs of MEPM, E. coli ATCC BAA-2469 (NDM-1), CAMHB pH5.0): 0.12 µg/mL (≈ 0.313 µM)
- MIC ([1]; Escherichia coli, ATCCBAA2469, pH 5, read-out: MICs of MEPM, E. coli ATCC BAA-2469 (NDM-1), Human urine pH5.0): 0.12 µg/mL (≈ 0.313 µM)
- MIC ([1]; Escherichia coli, ATCCBAA2469, pH 6, read-out: MICs of MEPM, E. coli ATCC BAA-2469 (NDM-1), CAMHB pH6.0): 8 µg/mL (≈ 20.9 µM)
- MIC ([1]; Escherichia coli, ATCCBAA2469, pH 6, read-out: MICs of MEPM, E. coli ATCC BAA-2469 (NDM-1), Human urine pH6.0): 0.12 µg/mL (≈ 0.313 µM)
- MIC ([1]; Escherichia coli, ATCCBAA2469, pH 7, read-out: MICs of MEPM, E. coli ATCC BAA-2469 (NDM-1), Human urine pH7.0): 16 µg/mL (≈ 41.7 µM)
- MIC ([1]; Escherichia coli, ATCCBAA2469, pH 7.2, read-out: MICs of MEPM, E. coli ATCC BAA-2469 (NDM-1), Standard condition (CAMHB pH7.2)): 32 µg/mL (≈ 83.4 µM)
- MIC ([1]; Escherichia coli, ATCCBAA2469, pH 8, read-out: MICs of MEPM, E. coli ATCC BAA-2469 (NDM-1), CAMHB pH8.0): 64 µg/mL (≈ 167 µM)
- MIC ([1]; Escherichia coli, ATCCBAA2469, pH 8, read-out: MICs of MEPM, E. coli ATCC BAA-2469 (NDM-1), Human urine pH8.0): 8 µg/mL (≈ 20.9 µM)
- MIC ([1]; Escherichia coli, NCTC13476, pH 5, read-out: MICs of MEPM, E. coli NCTC 13476 (IMP-1), CAMHB pH5.0): 0.25 µg/mL (≈ 0.652 µM)
- MIC ([1]; Escherichia coli, NCTC13476, pH 5, read-out: MICs of MEPM, E. coli NCTC 13476 (IMP-1), Human urine pH5.0): 0.25 µg/mL (≈ 0.652 µM)
- MIC ([1]; Escherichia coli, NCTC13476, pH 6, read-out: MICs of MEPM, E. coli NCTC 13476 (IMP-1), CAMHB pH6.0): 1 µg/mL (≈ 2.61 µM)
- MIC ([1]; Escherichia coli, NCTC13476, pH 6, read-out: MICs of MEPM, E. coli NCTC 13476 (IMP-1), Human urine pH6.0): 0.12 µg/mL (≈ 0.313 µM)
- MIC ([1]; Escherichia coli, NCTC13476, pH 7, read-out: MICs of MEPM, E. coli NCTC 13476 (IMP-1), Human urine pH7.0): 1 µg/mL (≈ 2.61 µM)
- MIC ([1]; Escherichia coli, NCTC13476, pH 7.2, read-out: MICs of MEPM, E. coli NCTC 13476 (IMP-1), Standard condition (CAMHB pH7.2)): 4 µg/mL (≈ 10.4 µM)
- MIC ([1]; Escherichia coli, NCTC13476, pH 8, read-out: MICs of MEPM, E. coli NCTC 13476 (IMP-1), CAMHB pH8.0): 16 µg/mL (≈ 41.7 µM)
- MIC ([1]; Escherichia coli, NCTC13476, pH 8, read-out: MICs of MEPM, E. coli NCTC 13476 (IMP-1), Human urine pH8.0): 8 µg/mL (≈ 20.9 µM)
- MIC ([1]; Klebsiella pneumoniae, ATCCBAA2342, pH 5, read-out: MICs of MEPM, K. pneumoniae ATCC BAA-2342 (KPC-3), CAMHB pH5.0): 16 µg/mL (≈ 41.7 µM)
- MIC ([1]; Klebsiella pneumoniae, ATCCBAA2342, pH 5, read-out: MICs of MEPM, K. pneumoniae ATCC BAA-2342 (KPC-3), Human urine pH5.0): 4 µg/mL (≈ 10.4 µM)
- MIC ([1]; Klebsiella pneumoniae, ATCCBAA2342, pH 6, read-out: MICs of MEPM, K. pneumoniae ATCC BAA-2342 (KPC-3), CAMHB pH6.0): 16 µg/mL (≈ 41.7 µM)
